Laboratory results from US7517873B2, “Substituted pyrimidodiazepines” (Hoffman-La Roche Inc., priority 2007, dated 2009).

Target: T1, GST-PLK1 (Homo sapiens, UniProt P53350)
T1 construct: Full-length, active GST-PLK1 is purified from Sf9 insect cells; made in house; host or cells: Sf9 insect cells
Test: Biochemical Characterization Assay: GST-PLK1 kinase HTRF assay with GST-p53 substrate
Conditions: full-length GST-PLK1, GST-p53 and ATP, 37° C. for 35 minutes, HTRF signal
Description: Biochemical Characterization Assay
Full-length, active GST-PLK1 is purified from Sf9 insect cells, and full-length GST-p53 is purified from E. coli. Anti-phospho p53 antibody is from Cell Signaling Technology. Europium-conjugated anti-rabbit antibody is from PerkinElmer Life and Analytical Sciences. APC-conjugated anti-GST antibody is from Prozyme.
To assay compounds of the invention, two microliters of test compound (0.6 nM-4 mM) in DMSO or plain DMSO for control wells, 38 microliters of 20 mM HEPES pH 7, 50 mM NaCl, 10 mM MgCl2, 0.5 mM TCEP, 0.1 mM sodium orthovanadate, 0.1 mg/mL BSA, and 0.05% Triton X-100 (Kinase Assay Buffer) are added. […] Six microliters of GST-PLK1 (3 ug/mL) in Kinase Assay Buffer are then added and the solution incubated at 37° C. for 35 minutes. Six microliters of solution containing 43 mM EDTA to stop the reaction and a 1:600 dilution of anti-phospho-p53 antibody in 20 mM HEPES pH 7, 50 mM NaCl, and 0.5 mg/mL BSA (Antibody Binding Buffer) are added and the solution incubated at 37° C. for 30 minutes. […] The HTRF signal is read on an Envision reader from PerkinElmer Life and Analytical Sciences.

T1 sequence (P53350 whole entry): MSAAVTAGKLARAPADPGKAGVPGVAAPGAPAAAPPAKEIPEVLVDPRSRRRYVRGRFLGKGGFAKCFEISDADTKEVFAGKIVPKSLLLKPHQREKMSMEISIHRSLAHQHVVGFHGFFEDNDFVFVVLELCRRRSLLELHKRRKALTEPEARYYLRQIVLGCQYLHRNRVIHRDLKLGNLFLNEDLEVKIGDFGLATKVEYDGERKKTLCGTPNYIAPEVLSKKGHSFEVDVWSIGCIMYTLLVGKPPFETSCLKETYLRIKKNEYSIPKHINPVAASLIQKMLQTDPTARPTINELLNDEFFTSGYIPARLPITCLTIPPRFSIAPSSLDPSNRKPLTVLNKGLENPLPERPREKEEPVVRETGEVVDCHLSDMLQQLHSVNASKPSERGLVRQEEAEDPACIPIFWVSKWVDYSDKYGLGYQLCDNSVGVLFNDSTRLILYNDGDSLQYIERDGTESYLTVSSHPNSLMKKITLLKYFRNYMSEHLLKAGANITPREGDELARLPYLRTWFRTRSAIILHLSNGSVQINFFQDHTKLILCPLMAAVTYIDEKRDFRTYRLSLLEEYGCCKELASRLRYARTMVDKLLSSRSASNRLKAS

Q: Which IC50 does the source give for `COc1cc(C(=O)NC2CCN(C)CC2)ccc1Nc1ncc2c(n1)N(C1CCCC1)CC(C)C(=O)N2C` (racemic) [I-2, (rac)-4-(9-Cyclopentyl-5,7-dimethyl-6-oxo-6,7,8,9-tetrahydro-5H-pyrimido[4,5-b][1,4]diazepin-2-ylamino)-3-methoxy-N-(1-methyl-piperidin-4-yl)-benzamide] here?
A: < 0.5 µM

Q: With `CC1CN(C2CCCC2)c2nc(Nc3ccc(C(=O)Nc4ccncc4)c(Cl)c3)ncc2N(C)C1=O` (racemic) [I-86, (rac)-2-Chloro-4-(9-cyclopentyl-5,7-dimethyl-6-oxo-6,7,8,9-tetrahydro-5H-pyrimido[4,5-b][1,4]diazepin-2-ylamino)-N-pyridin-4-yl-benzamide] as the molecule, how does the IC50 read?
A: > 5 µM

Q: With `COc1ccccc1Nc1ncc2c(n1)N(C1CCC1)CCC(=O)N2C` [I-25, 9-Cyclobutyl-2-(2-methoxy-phenylamino)-5-methyl-5,7,8,9-tetrahydro-pyrimido[4,5-b][1,4]diazepin-6-one] as the molecule, how does the IC50 read?
A: > 5 µM

Q: `CCCC1CN(C2CCCC2)c2nc(Nc3ccc(C(=O)NC4CCN(C)CC4)cc3OC)ncc2N(C)C1=O` (racemic) [I-17, (rac)-4-(9-Cyclopentyl-5-methyl-6-oxo-7-propyl-6,7,8,9-tetrahydro-5H-pyrimido[4,5-b][1,4]diazepin-2-ylamino)-3-methoxy-N-(1-methyl-piperidin-4-yl)-benzamide] was tested. Which IC50 did it give?
A: 0.5 to 5 µM

Q: How did the IC50 turn out when `CC1CN(C2CCCC2)c2nc(Nc3ccc4oc(-c5ccncc5)nc4c3)ncc2N(C)C1=O` (racemic) [I-76, (rac)-9-Cyclopentyl-5,7-dimethyl-2-(2-pyridin-4-yl-benzooxazol-5-ylamino)-5,7,8,9-tetrahydro-pyrimido[4,5-b][1,4]diazepin-6-one] was run?
A: > 5 µM

Q: Which IC50 does the source give for `COc1cc(C(=O)NC2CCN(C)CC2)ccc1Nc1ncc2c(n1)N(CC1CCCC1)CC(C)C(=O)N2C` (racemic) [I-55, (rac)-4-(9-Cyclopentylmethyl-5,7-dimethyl-6-oxo-6,7,8,9-tetrahydro-5H-pyrimido[4,5-b][1,4]diazepin-2-ylamino)-3-methoxy-N-(1-methyl-piperidin-4-yl)-benzamide] here?
A: < 0.5 µM

Q: How did the IC50 turn out when `COc1cc(C(=O)NC2CCN(C)CC2)ccc1N(C)c1ncc2c(n1)N(C1CCCCC1)CC(C)C(=O)N2C` (racemic) [I-66, (rac)-4-[(9-Cyclohexyl-5,7-dimethyl-6-oxo-6,7,8,9-tetrahydro-5H-pyrimido[4,5-b][1,4]diazepin-2-yl)-methyl-amino]-3-methoxy-N-(1-methyl-piperidin-4-yl)-benzamide] was run?
A: > 5 µM

Q: Which IC50 does the source give for `COc1cc(C(N)=O)ccc1Nc1ncc2c(n1)N(C1CCC1)CCC(=O)N2C` [I-34, 4-(9-Cyclobutyl-5-methyl-6-oxo-6,7,8,9-tetrahydro-5H-pyrimido[4,5-b][1,4]diazepin-2-ylamino)-3-methoxy-benzamide] here?
A: 0.5 to 5 µM

Q: With `CC1CN(C2CCCC2)c2nc(Nc3ccc4oc(-c5cccnc5)nc4c3)ncc2N(C)C1=O` (racemic) [I-77, (rac)-9-Cyclopentyl-5,7-dimethyl-2-(2-pyridin-3-yl-benzooxazol-5-ylamino)-5,7,8,9-tetrahydro-pyrimido[4,5-b][1,4]diazepin-6-one] as the molecule, how does the IC50 read?
A: > 5 µM

Q: With `CCCNC(=O)c1ccc(Nc2ncc3c(n2)N(C2CCCCC2)CCC(=O)N3)c(OC)c1` [I-30, 4-(9-Cyclohexyl-6-oxo-6,7,8,9-tetrahydro-5H-pyrimido[4,5-b][1,4]diazepin-2-ylamino)-3-methoxy-N-propyl-benzamide] as the molecule, how does the IC50 read?
A: > 5 µM

Q: Which IC50 does the source give for `COc1cc(C(=O)NC2CCN(C)CC2)ccc1Nc1ncc2c(n1)N(C1CCOCC1)CC(C)C(=O)N2C` (racemic) [I-45, (rac)-4-[5,7-Dimethyl-6-oxo-9-(tetrahydro-pyran-4-yl)-6,7,8,9-tetrahydro-5H-pyrimido[4,5-b][1,4]diazepin-2-ylamino]-3-methoxy-N-(1-methyl-piperidin-4-yl)-benzamide] here?
A: < 0.5 µM

Q: Which IC50 does the source give for `COc1cc(C(=O)NC2CCN(C)CC2)ccc1Nc1ncc2c(n1)N(C1CC1)C(C)C(C)C(=O)N2C` (racemic) [I-46, (rac)-4-(9-Cyclopropyl-5,7,8-trimethyl-6-oxo-6,7,8,9-tetrahydro-5H-pyrimido[4,5-b][1,4]diazepin-2-ylamino)-3-methoxy-N-(1-methyl-piperidin-4-yl)-benzamide] here?
A: < 0.5 µM

Q: How did the IC50 turn out when `COc1ccc(NC(=O)c2ccccc2)cc1Nc1ncc2c(n1)N(C1CCCC1)CC(C)C(=O)N2C` (racemic) [I-78, (rac)-N-[3-(9-Cyclopentyl-5,7-dimethyl-6-oxo-6,7,8,9-tetrahydro-5H-pyrimido[4,5-b][1,4]diazepin-2-ylamino)-4-methoxy-phenyl]-benzamide] was run?
A: 0.5 to 5 µM

Q: Which IC50 does the source give for `COc1ccc(C(=O)NC2CCOCC2)cc1Nc1ncc2c(n1)N(C1CCCC1)CC(C)C(=O)N2C` (racemic) [I-74, (rac)-3-(9-Cyclopentyl-5,7-dimethyl-6-oxo-6,7,8,9-tetrahydro-5H-pyrimido[4,5-b][1,4]diazepin-2-ylamino)-4-methoxy-N-(tetrahydro-pyran-4-yl)-benzamide] here?
A: < 0.5 µM

Q: `COc1ccc(NC(=O)C2CCN(C(C)=O)CC2)cc1Nc1ncc2c(n1)N(C1CCCC1)CC(C)C(=O)N2C` (racemic) [I-80, (rac)-1-Acetyl-piperidine-4-carboxylic acid [3-(9-cyclopentyl-5,7-dimethyl-6-oxo-6,7,8,9-tetrahydro-5H-pyrimido[4,5-b][1,4]diazepin-2-ylamino)-4-methoxy-phenyl]-amide] was tested. Which IC50 did it give?
A: 0.5 to 5 µM

Q: `COc1cc(C(=O)NC2CCN(C)CC2)ccc1Nc1ncc2c(n1)N(C1CCCC1)CCC(=O)N2` [I-21, 4-(9-Cyclopentyl-6-oxo-6,7,8,9-tetrahydro-5H-pyrimido[4,5-b][1,4]diazepin-2-ylamino)-3-methoxy-N-(1-methyl-piperidin-4-yl)-benzamide] was tested. Which IC50 did it give?
A: 0.5 to 5 µM

Q: `COc1cc(C(=O)NC2CCN(C)CC2)ccc1Nc1ncc2c(n1)N(CCC(C)C)CC(C)C(=O)N2C` (racemic) [I-27, (rac)-4-[5,7-Dimethyl-9-(3-methyl-butyl)-6-oxo-6,7,8,9-tetrahydro-5H-pyrimido[4,5-b][1,4]diazepin-2-ylamino]-3-methoxy-N-(1-methyl-piperidin-4-yl)-benzamide] was tested. Which IC50 did it give?
A: 0.5 to 5 µM

Q: For `CC1CN(C2CCCC2)c2nc(Nc3cccc(C(=O)Nc4ccncc4)c3)ncc2N(C)C1=O` (racemic) [I-92, (rac)-3-(9-Cyclopentyl-5,7-dimethyl-6-oxo-6,7,8,9-tetrahydro-5H-pyrimido[4,5-b][1,4]diazepin-2-ylamino)-N-pyridin-4-yl-benzamide], which IC50 is on record?
A: > 5 µM

Q: With `COc1cc(C(=O)NC2CCN(Cc3ccccc3)CC2)ccc1Nc1ncc2c(n1)N(C1CCCC1)CC(C)C(=O)N2C` (racemic) [I-9, (rac)-N-(1-Benzyl-piperidin-4-yl)-4-(9-cyclopentyl-5,7-dimethyl-6-oxo-6,7,8,9-tetrahydro-5H-pyrimido[4,5-b][1,4]diazepin-2-ylamino)-3-methoxy-benzamide] as the molecule, how does the IC50 read?
A: < 0.5 µM

Q: How did the IC50 turn out when `CC1CN(C2CCCC2)c2nc(Nc3ccc(C(=O)NC4CCCCC4)c(Cl)c3)ncc2N(C)C1=O` (racemic) [I-85, (rac)-2-Chloro-N-cyclohexyl-4-(9-cyclopentyl-5,7-dimethyl-6-oxo-6,7,8,9-tetrahydro-5H-pyrimido[4,5-b][1,4]diazepin-2-ylamino)-benzamide] was run?
A: > 5 µM

Q: How did the IC50 turn out when `CN1CCC(NC(=O)c2ccc(Nc3ncc4c(n3)N(C3CCCC3)CC3(CC3)C(=O)N4C)cc2)CC1` [I-62, 4-[(9-Cyclopentyl-6,7,8,9-tetrahydro-5-methyl-6-oxospiro[5H-pyrimido[4,5-b][1,4]diazepine-7,1′-cyclopropan]-2-yl)amino]-N-(1-methyl-4-piperidinyl)benzamide] was run?
A: < 0.5 µM
